Data published in ChEMBL document CHEMBL3886334, “Fragment ligated inhibitors selective for the polo box domain of PLK1” (2015).

Molecular target: Serine/threonine-protein kinase PLK1 (Homo sapiens, UniProt P53350)
Test: Fluorescent Polarization Binding Assay: The buffer composition was 50 mM Tris, 200 mM NaCl, 2.0 mM DTT, and 0.005% Tween 20 (pH 8.0). Fragment ligated inhibitors and comparison peptides to be tested in the binding assay were dissolved in dimethyl sulfoxide (DMSO) to a concentration of 10 mM, compounds were utilized in a range of concentrations from 10 nM to 600 μM. The PLK1 PBD protein (residues …

Sequence of Serine/threonine-protein kinase PLK1 (P53350 whole entry, the tested form may be a part): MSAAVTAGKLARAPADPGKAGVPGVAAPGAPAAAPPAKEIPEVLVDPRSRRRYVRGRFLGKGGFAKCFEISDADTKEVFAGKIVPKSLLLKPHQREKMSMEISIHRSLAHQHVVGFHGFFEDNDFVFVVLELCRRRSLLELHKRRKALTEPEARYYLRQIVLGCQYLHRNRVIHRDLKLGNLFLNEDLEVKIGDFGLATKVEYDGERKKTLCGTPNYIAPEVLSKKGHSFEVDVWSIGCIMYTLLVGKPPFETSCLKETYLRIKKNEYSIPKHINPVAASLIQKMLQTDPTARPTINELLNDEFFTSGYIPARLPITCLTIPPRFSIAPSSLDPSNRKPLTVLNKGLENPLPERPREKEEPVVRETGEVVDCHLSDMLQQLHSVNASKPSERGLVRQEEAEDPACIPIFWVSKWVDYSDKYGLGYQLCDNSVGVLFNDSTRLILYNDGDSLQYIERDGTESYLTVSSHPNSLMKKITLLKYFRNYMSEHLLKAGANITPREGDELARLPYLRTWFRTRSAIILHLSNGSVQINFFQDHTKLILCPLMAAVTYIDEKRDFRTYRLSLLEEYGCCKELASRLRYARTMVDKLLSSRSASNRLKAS

Row | IC50 | SMILES
1 | 104 µM | CNC(=O)c1cccc2ccccc12
2 | 16.5 µM | CCc1ccc(C(=O)NC)cc1
3 | 250 µM | CNC(=O)Cn1cc(-c2ccc(C)cc2)ncc1=O
4 | 16.5 µM | CCCNc1ccc(C(=O)NC)cc1
5 | 475 µM | CNC(=O)CSc1ncnc2sc(C)cc12
6 | 8.6 µM | CCCCc1ccc(C(=O)NC)cc1
7 | 29.5 µM | CCCOc1ccc(C(=O)NC)cc1
8 | 300 µM | CNC(=O)c1cc(OC)c2c(c1)OCCO2
9 | > 600 µM | CNC(=O)c1sc(C(F)(F)F)c(-c2ccccc2)c1N
10 | 99 µM | CNC(=O)c1ccc(OC)c2ccccc12
11 | 375 µM | CNC(=O)c1cn(S(=O)(=O)c2ccccc2)c2ccccc12
12 | 350 µM | CNC(=O)CN1C(=O)COc2ccc(C)cc21
13 | 400 µM | CNC(=O)c1ccc2ncccc2c1
14 | 125 µM | CNC(=O)c1ccc(OC)cc1
15 | 320 µM | CNC(=O)c1ccc(-c2noc(C)n2)cc1
16 | 380 µM | CNC(=O)c1cc(-c2cccc(OC)c2)n[nH]1
17 | 10.8 µM | CCCc1ccc(C(=O)NC)cc1
18 | 500 µM | CNC(=O)c1cc(-c2ccccc2)c(C(F)(F)F)s1
19 | 31.2 µM | CNC(=O)c1ccc(NC)cc1
20 | 64.7 µM | CCOc1ccc(C(=O)NC)cc1
21 | 18.5 µM | CNC(=O)c1ccc(SC)cc1
22 | 600 µM | CNC(=O)c1cc(-c2ccccc2)n(-c2ccccc2)c1C
